pIC50: −log10 of the molar value.
Experiments:
[1] = target: human Cereblon WT GST-tagged protein (Homo sapiens (Human), UniProt Q96SW2); test: CRBN-binding affinity, HTRF (CEREBLON BINDING kit)
Method in brief: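 HTRF competition readout: compounds compete with a thalidomide-Re conjugate for GST-tagged wild-type human CRBN detected via Eu-labelled anti-GST antibody. Inhibition rate derived relative to protein-free blank wells.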

IKZF1 protein = IKZF1 protein (Homo sapiens (Human), UniProt Q13422+Q96SW2); test: Western-blot assay of substrate protein degradation in hPBMC, IKZF1; assay type: cell-based; conditions: hPBMC cells, compound 500 nM, 24 hours, Western blot
IKZF3 protein = IKZF3 protein (Homo sapiens (Human), UniProt Q96SW2+Q9UKT9); test: Western-blot assay of substrate protein degradation in hPBMC, IKZF3; assay type: cell-based; conditions: hPBMC cells, compound 500 nM, 24 hours, Western blot
GSPT1 protein = GSPT1 protein (Homo sapiens (Human), UniProt P15170+Q96SW2); test: Western-blot assay of substrate protein degradation in hPBMC, GSPT1; assay type: cell-based; conditions: hPBMC cells, compound 500 nM, 24 hours, Western blot
Mino cells = test: Tumor cell proliferation IC50 (CCK-8), Mino; conditions: Homo sapiens, 72 h, read-out: IC50 for inhibiting the proliferation of tumor cells, Mino;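 also: cell viability assessed with CCK-8 reagent after compound exposure, IC50 derived from plotted growth inhibition curves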
Description: (§1) The tumor cells used herein were cultured in a cell culture medium listed in table A at 37° C. in an incubator with 5% CO2.
(§2) After the cells were treated with the compounds of the present disclosure for a period of time, the cell viability detection reagent was added to the culture medium for cell viability assessment according to the instructions provided with the CCK-8 kit. […] The growth inhibition of the compounds of the present disclosure on cells was plotted by Prism Graphpad software, and the IC50 values of the compounds of the present disclosure were calculated therefrom.

MM.1S cells = test: Tumor cell proliferation IC50 (CCK-8), MM.1S; conditions: Homo sapiens, MM1.S, 72 h, read-out: IC50 for inhibiting the proliferation of tumor cells, MM.1S;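 also: viability of cultured cells read by CCK-8 reagent after compound exposure, growth inhibition curves fitted to derive IC50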
Daudi cells = test: Tumor cell proliferation IC50 (CCK-8), Daudi; conditions: Homo sapiens, read-out: IC50 for inhibiting the proliferation of tumor cells, Daudi;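 also: cell viability read with CCK-8 reagent after compound exposure of Daudi cells, IC50 derived from plotted growth inhibition curves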
CCRF-CEM cells = test: Tumor cell proliferation IC50 (CCK-8), CCRF-CEM; conditions: Homo sapiens, 96 h, read-out: IC50 for inhibiting the proliferation of tumor cells, CCRF-CEM;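 also: cell viability measured with CCK-8 reagent after compound treatment, IC50 taken from plotted growth inhibition curves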
Description: as §1, §2

Sequence of human Cereblon WT GST-tagged protein (Q96SW2 whole entry): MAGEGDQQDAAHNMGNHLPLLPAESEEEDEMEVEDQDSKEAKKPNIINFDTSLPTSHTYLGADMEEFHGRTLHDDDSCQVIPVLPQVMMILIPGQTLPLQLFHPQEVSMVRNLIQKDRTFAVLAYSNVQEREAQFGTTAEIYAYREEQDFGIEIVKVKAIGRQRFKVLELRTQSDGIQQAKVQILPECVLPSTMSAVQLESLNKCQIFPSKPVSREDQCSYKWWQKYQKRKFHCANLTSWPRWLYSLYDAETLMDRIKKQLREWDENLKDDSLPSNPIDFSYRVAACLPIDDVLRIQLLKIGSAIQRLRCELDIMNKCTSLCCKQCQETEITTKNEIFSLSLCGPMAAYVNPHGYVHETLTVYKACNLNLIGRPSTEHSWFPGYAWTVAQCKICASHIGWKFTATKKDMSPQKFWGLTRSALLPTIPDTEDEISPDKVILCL
Sequence of IKZF3 protein (Q9UKT9 whole entry): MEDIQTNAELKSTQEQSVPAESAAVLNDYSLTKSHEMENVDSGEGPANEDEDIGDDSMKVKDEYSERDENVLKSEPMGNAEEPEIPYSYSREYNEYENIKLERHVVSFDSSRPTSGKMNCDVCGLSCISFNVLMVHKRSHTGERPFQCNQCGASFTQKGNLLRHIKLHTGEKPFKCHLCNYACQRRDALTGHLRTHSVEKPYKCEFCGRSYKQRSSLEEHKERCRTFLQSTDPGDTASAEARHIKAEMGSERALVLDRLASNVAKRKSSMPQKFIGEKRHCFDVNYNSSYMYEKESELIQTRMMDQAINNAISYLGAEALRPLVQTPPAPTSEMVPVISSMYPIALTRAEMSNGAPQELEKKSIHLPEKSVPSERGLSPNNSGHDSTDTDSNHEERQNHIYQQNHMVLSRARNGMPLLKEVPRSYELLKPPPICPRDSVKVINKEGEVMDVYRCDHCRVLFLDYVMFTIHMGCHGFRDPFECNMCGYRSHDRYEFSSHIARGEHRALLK
Sequence of IKZF3 protein (Q96SW2 whole entry): as the sequence (Q96SW2 whole entry) above
Sequence of IKZF3 protein (Q16531 whole entry partner): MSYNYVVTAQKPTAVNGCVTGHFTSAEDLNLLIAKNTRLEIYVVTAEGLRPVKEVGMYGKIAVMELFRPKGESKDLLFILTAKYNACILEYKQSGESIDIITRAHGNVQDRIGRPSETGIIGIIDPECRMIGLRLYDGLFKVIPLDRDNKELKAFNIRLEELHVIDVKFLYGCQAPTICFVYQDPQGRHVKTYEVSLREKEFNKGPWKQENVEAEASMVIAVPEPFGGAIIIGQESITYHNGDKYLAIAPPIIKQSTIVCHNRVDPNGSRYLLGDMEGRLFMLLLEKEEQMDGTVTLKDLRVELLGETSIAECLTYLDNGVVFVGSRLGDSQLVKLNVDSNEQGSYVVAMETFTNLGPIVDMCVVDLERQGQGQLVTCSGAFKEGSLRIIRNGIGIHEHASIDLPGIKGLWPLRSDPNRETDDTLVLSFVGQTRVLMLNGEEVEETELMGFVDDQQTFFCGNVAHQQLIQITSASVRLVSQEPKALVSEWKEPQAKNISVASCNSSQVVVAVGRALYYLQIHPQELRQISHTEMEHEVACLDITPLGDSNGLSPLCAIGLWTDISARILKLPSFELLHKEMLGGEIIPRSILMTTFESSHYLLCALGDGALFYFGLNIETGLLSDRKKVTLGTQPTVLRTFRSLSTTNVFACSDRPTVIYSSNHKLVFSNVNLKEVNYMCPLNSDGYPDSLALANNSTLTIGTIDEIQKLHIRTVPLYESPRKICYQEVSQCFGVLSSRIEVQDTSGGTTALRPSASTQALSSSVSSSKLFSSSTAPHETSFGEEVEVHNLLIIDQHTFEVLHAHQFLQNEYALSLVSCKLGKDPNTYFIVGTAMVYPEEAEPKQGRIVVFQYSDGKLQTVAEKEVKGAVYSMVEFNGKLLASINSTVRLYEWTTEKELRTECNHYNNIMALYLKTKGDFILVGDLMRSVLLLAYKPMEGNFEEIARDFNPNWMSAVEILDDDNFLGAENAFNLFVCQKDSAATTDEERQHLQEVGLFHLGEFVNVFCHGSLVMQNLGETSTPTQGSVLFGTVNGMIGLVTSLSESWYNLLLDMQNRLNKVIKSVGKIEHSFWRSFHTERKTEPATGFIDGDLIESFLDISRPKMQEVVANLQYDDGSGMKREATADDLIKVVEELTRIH
Sequence of IKZF1 protein (Q13422 whole entry): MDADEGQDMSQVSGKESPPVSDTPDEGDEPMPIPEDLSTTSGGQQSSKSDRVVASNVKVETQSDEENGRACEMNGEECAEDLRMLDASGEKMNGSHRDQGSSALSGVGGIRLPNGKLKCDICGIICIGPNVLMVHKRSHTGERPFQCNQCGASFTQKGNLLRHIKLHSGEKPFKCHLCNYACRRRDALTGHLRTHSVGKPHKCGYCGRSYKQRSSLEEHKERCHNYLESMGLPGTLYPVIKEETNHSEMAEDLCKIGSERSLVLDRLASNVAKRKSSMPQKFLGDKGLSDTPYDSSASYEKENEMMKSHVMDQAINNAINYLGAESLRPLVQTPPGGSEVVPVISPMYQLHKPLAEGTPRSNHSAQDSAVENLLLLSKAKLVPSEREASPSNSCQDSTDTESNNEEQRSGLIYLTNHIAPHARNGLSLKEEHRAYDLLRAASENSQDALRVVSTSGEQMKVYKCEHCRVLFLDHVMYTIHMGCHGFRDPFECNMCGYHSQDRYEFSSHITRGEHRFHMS
Sequence of IKZF1 protein (Q96SW2 whole entry): as the sequence (Q96SW2 whole entry) above
Sequence of IKZF1 protein (Q16531 whole entry partner): as the sequence (Q16531 whole entry partner) above
Sequence of GSPT1 protein (P15170 whole entry): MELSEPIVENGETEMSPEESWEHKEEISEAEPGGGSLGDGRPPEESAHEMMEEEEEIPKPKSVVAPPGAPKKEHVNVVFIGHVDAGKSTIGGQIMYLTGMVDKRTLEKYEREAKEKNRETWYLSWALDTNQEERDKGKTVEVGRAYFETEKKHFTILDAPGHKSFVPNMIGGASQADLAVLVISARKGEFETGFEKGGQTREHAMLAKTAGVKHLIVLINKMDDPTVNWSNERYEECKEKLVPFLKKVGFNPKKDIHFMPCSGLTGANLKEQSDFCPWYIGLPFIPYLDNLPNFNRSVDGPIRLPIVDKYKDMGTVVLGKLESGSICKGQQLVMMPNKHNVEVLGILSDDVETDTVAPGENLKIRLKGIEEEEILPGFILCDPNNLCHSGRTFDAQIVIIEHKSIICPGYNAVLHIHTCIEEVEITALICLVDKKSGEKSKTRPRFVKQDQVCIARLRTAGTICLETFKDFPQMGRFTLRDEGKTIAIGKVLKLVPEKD
Sequence of GSPT1 protein (Q96SW2 whole entry): as the sequence (Q96SW2 whole entry) above
Sequence of GSPT1 protein (Q16531 whole entry partner): as the sequence (Q16531 whole entry partner) above

Structure (SMILES) | pIC50 [1] | pIC50 (Mino cells) | pIC50 (MM.1S cells) | pIC50 (Daudi cells) | pIC50 (CCRF-CEM cells) | residual substrate protein level, IKZF1 (IKZF1 protein) | residual substrate protein level, IKZF3 (IKZF3 protein) | residual substrate protein level, GSPT1 (GSPT1 protein)
O=C1CCC(N2Cc3cc(CN4CCN(Cc5ccc(-c6cccs6)s5)CC4)ccc3C2=O)C(=O)N1 (stereo not drawn) [GT-05624, 3-(5-((4-([2,2′-bithiophen]-5-ylmethyl)piperazin-1-yl)methyl)-1-oxoisoindolin-2-yl)piperidine-2,6-dione] | 6.33 | 7.30 to 8.00 | 6.30 to 7.00 | 6.00 to 6.30 | – | A (A represents a residual substrate protein level of <50%) | A (A represents a residual substrate protein level of <50%) | B (B represents a residual substrate protein level of >50%)
O=C1CCC(N2C(=O)c3ccc(CN4CCN(Cc5ccc(-c6ccc(Cl)cc6)s5)CC4)cc3C2=O)C(=O)N1 (stereo not drawn) [GT-05626, 5-((4-((5-(4-chlorophenyl)thiophen-2-yl)methyl)piperazin-1-yl)methyl)-2-(2,6-dioxopiperidin-3-yl)isoindoline-1,3-dione] | – | 6.00 to 6.30 | – | 6.00 to 6.30 | 6.00 to 6.30 | B (B represents a residual substrate protein level of >50%) | B (B represents a residual substrate protein level of >50%) | B (B represents a residual substrate protein level of >50%)
CC1(C)CC(c2ccc(Cl)cc2)=C(CN2CCN(Cc3ccc4c(c3)CN(C3CCC(=O)NC3=O)C4=O)CC2)CO1 (stereo not drawn) [GT-05672, 3-(5-((4-((4-(4-chlorophenyl)-6,6-dimethyl-5,6-dihydro-2H-pyran-3-yl)methyl)piperazin-1-yl)methyl)-1-oxoisoindolin-2-yl)piperidine-2,6-dione] | 6.24 | 7.30 to 8.00 | 7.30 to 8.00 | 6.00 to 6.30 | – | A (A represents a residual substrate protein level of <50%) | A (A represents a residual substrate protein level of <50%) | A (A represents a residual substrate protein level of <50%)
O=C1CCC(N2Cc3cc(CN4CCN(Cc5ccc(-c6ccco6)s5)CC4)ccc3C2=O)C(=O)N1 (stereo not drawn) [GT-05780, 3-(5-((4-((5-(furan-2-yl)thiophen-2-yl)methyl)piperazin-1-yl)methyl)-1-oxoisoindolin-2-yl)piperidine-2,6-dione] | 6.64 | 8.00 to 8.30 | 6.00 to 6.30 | 6.30 to 7.00 | – | A (A represents a residual substrate protein level of <50%) | A (A represents a residual substrate protein level of <50%) | A (A represents a residual substrate protein level of <50%)
CC1(C)CCC(CN2CCN(Cc3ccc4c(c3)CN(C3CCC(=O)NC3=O)C4=O)CC2)=C(c2cncs2)C1 (stereo not drawn) [GT-05791, 3-(5-((4-((4,4-dimethyl-2-(thiazol-5-yl)cyclohex-1-en-1-yl)methyl)piperazin-1-yl)methyl)-1-oxoisoindolin-2-yl)piperidine-2,6-dione] | 6.14 | 7.30 to 8.00 | 7.30 to 8.00 | 6.00 to 6.30 | – | A (A represents a residual substrate protein level of <50%) | A (A represents a residual substrate protein level of <50%) | B (B represents a residual substrate protein level of >50%)
Cc1ccc(C2=C(CN3CCN(Cc4ccc5c(c4)CN(C4CCC(=O)NC4=O)C5=O)CC3)CCC(C)(C)C2)cc1 (stereo not drawn) [GT-05792, 3-(1-oxo-5-((4-((4′,5,5-trimethyl-3,4,5,6-tetrahydro-[1,1′-biphenyl]-2-yl)methyl)piperazin-1-yl)methyl)isoindolin-2-yl)piperidine-2,6-dione] | 6.18 | 8.00 to 8.30 | 8.00 to 8.30 | 7.00 to 7.30 | 8.00 to 8.30 | – | – | –

More lines, main results first:

pIC50 [1] | pIC50 (Mino cells) | pIC50 (MM.1S cells) | pIC50 (Daudi cells) | pIC50 (CCRF-CEM cells) | Structure (SMILES) | residual substrate protein level, IKZF1 (IKZF1 protein) | residual substrate protein level, IKZF3 (IKZF3 protein) | residual substrate protein level, GSPT1 (GSPT1 protein)
6.18 | 7.30 to 8.00 | 7.30 to 8.00 | 6.30 to 7.00 | 6.30 to 7.00 | O=C1CCC(N2Cc3cc(NC4CN(Cc5ccccc5-c5ccc(Cl)cc5)C4)ccc3C2=O)C(=O)N1 (stereo not drawn) [GT-05382, 3-(5-((1-((4′-chloro-[1,1′-biphenyl]-2-yl)methyl)azetidin-3-yl)amino)-1-oxoisoindolin-2-yl)piperidine-2,6-dione] | A (A represents a residual substrate protein level of <50%) | A (A represents a residual substrate protein level of <50%) | A (A represents a residual substrate protein level of <50%)
5.78 | 7.00 to 7.30 | 6.30 to 7.00 | 6.30 to 7.00 | – | O=C1CCC(N2Cc3cc(CN4CCN(Cc5ccc(-c6ccc(Cl)cc6)s5)CC4)ccc3C2=O)C(=O)N1 (stereo not drawn) [GT-05625, 3-(5-((4-((5-(4-chlorophenyl)thiophen-2-yl)methyl)piperazin-1-yl)methyl)-1-oxoisoindolin-2-yl)piperidine-2,6-dione] | B (B represents a residual substrate protein level of >50%) | B (B represents a residual substrate protein level of >50%) | B (B represents a residual substrate protein level of >50%)
6.12 | 7.30 to 8.00 | 8.00 to 8.30 | 7.00 to 7.30 | 8.00 to 8.30 | Cn1cccc1-c1ccccc1CN1CCN(Cc2ccc3c(c2)CN(C2CCC(=O)NC2=O)C3=O)CC1 (stereo not drawn) [GT-05683, 3-(5-((4-(2-(1-methyl-1H-pyrrol-2-yl)benzyl)piperazin-1-yl)methyl)-1-oxoisoindolin-2-yl)piperidine-2,6-dione] | – | – | –
6.51 | 7.30 to 8.00 | 6.30 to 7.00 | 6.00 to 6.30 | – | O=C1CCC(N2Cc3cc(CN4CCN(Cc5ccc(-c6ccco6)cc5)CC4)ccc3C2=O)C(=O)N1 (stereo not drawn) [GT-05693, 3-(5-((4-(4-(furan-2-yl)benzyl)piperazin-1-yl)methyl)-1-oxoisoindolin-2-yl)piperidine-2,6-dione] | B (B represents a residual substrate protein level of >50%) | A (A represents a residual substrate protein level of <50%) | B (B represents a residual substrate protein level of >50%)
6.28 | 7.30 to 8.00 | 8.00 to 8.30 | 6.30 to 7.00 | – | O=C1CCC(N2Cc3cc(CN4CCN(Cc5cnccc5-c5ccc(Cl)cc5)CC4)ccc3C2=O)C(=O)N1 (stereo not drawn) [GT-05703, 3-(5-((4-((4-(4-chlorophenyl)pyridin-3-yl)methyl)piperazin-1-yl)methyl)-1-oxoisoindolin-2-yl)piperidine-2,6-dione] | A (A represents a residual substrate protein level of <50%) | A (A represents a residual substrate protein level of <50%) | B (B represents a residual substrate protein level of >50%)
6.21 | > 8.30 | > 8.30 | 7.30 to 8.00 | > 8.30 | O=C1CCC(N2Cc3cc(NC4CCN(C(=O)c5ccccc5-c5ccc(Cl)cc5)CC4)ccc3C2=O)C(=O)N1 (stereo not drawn) [GT-05784, 3-(5-((1-(4′-chloro-[1,1′-biphenyl]-2-carbonyl)piperidin-4-yl)amino)-1-oxoisoindolin-2-yl)piperidine-2,6-dione] | – | – | –
